This data set relates to GENE-TOX genotoxicity assays, various organisms and cells. Nature of the data set: GENE-TOX mutagenicity studies. The conditions noted are these: for call: Assay Type: In vivo carcinogenicity studies, Assay Code: CCG+.
Where [1] appears, read: Species/Cell Type: Mammalian polychromatic erythrocytes, Assay Type: Micronucleus test, chromosome aberrations, Assay Code: MNT+, Evaluation Type: Evaluation B (Post-1980).
Where [2] appears, read: Species/Cell Type: Nonhuman, Evaluation Type: Evaluation A (Pre-1980).
The mark [3] stands for this setting: Species/Cell Type: Nonhuman, Assay Type: Sister-chromatid exchange (SCE) in vivo, Assay Code: SC3+D, Dose Response: With dose response, Evaluation Type: Evaluation B (Post-1980).
Setting [4] is: Species/Cell Type: Salmonella typhimurium (one or more of the five standard strains: TA98, TA100, TA1535, TA1537, and TA1538), Assay Type: Histidine reverse gene mutation, Ames assay, Assay Code: SAL+, Evaluation Type: Evaluation A (Pre-1980).
The mark [5] stands for this setting: Species/Cell Type: Human, Assay Type: Sister-chromatid exchange (SCE) in vitro, Assay Code: SC1+, Evaluation Type: Evaluation B (Post-1980).
Where [6] appears, read: Species/Cell Type: Nonhuman, Assay Type: Sister-chromatid exchange (SCE) in vivo, Assay Code: SC3+, Evaluation Type: Evaluation B (Post-1980).
Where [7] appears, read: Species/Cell Type: Drosophila melanogaster, Assay Type: Sex-linked recessive lethal gene mutation, Assay Code: SRLT, Evaluation Type: Evaluation A (Pre-1980).
[8] abbreviates: Species/Cell Type: Human, Assay Type: Sister-chromatid exchange (SCE) in vitro, Assay Code: SC1T, Evaluation Type: Evaluation B (Post-1980).
[9] abbreviates: Species/Cell Type: Nonhuman, Assay Type: Sister-chromatid exchange (SCE) in vitro, Assay Code: SC2+D, Dose Response: With dose response, Evaluation Type: Evaluation B (Post-1980).

Calls of active or inactive are those of the source. The rule behind the calls is not given here.

In the case of `CCN(N=O)C(N)=O`, the mutagenic call was “active; positive” (Species/Cell Type: Arabidopsis species, Assay Type: Gene mutation, Assay Code: ARM+D, Dose Response: With dose response, Evaluation Type: Evaluation A (Pre-1980)); “active; positive” (Species/Cell Type: Chinese hamster ovary (CHO) cells, Assay Type: Forward gene mutation at the HPRT locus, Assay Code: CHO+D, Dose Response: With dose response, Evaluation Type: Evaluation A (Pre-1980)); “active; positive” (Species/Cell Type: Drosophila melanogaster, Assay Type: Aneuploidy, partial sex chromosome loss, chromosome aberrations, Assay Code: DAP+M, Evaluation Type: Evaluation A (Pre-1980)); “active; positive” (Species/Cell Type: Drosophila melanogaster, Assay Type: Aneuploidy, whole sex chromosome loss, chromosome aberrations, Assay Code: DAC+M, Evaluation Type: Evaluation A (Pre-1980)); “active; positive” (Species/Cell Type: Drosophila melanogaster, Assay Type: Sex-linked recessive lethal gene mutation, Assay Code: SRL+, Evaluation Type: Evaluation A (Pre-1980)); “no conclusion” (Species/Cell Type: Drosophila melanogaster, Sex: Male, Assay Type: Heritable translocation test, chromosome aberrations, Assay Code: DHTT, Evaluation Type: Evaluation A (Pre-1980)). In addition, the mutagenic call reads like this: (Species/Cell Type: Escherichia coli polA (W3119 vs P3478), Assay Type: Rec-assay, DNA effects (bacterial DNA repair), Assay Code: RE1+, Evaluation Type: Evaluation A (Pre-1980)) “active; positive”; (Species/Cell Type: Fischer rat embryo (RLV/1706) cells, Assay Type: Cell transformation, viral enhanced, Assay Code: CTR+, Evaluation Type: Evaluation A (Pre-1980)) “active; positive”; (Species/Cell Type: Hordeum vulgare (barley), Assay Type: Chromosome aberrations, Assay Code: HOC+, Evaluation Type: Evaluation A (Pre-1980)) “active; positive”; (Species/Cell Type: Hordeum vulgare (barley), Assay Type: Gene mutation, Assay Code: HOM+, Evaluation Type: Evaluation A (Pre-1980)) “active; positive”; (Species/Cell Type: Human diploid fibroblasts, Assay Type: Unscheduled DNA synthesis (UDS) in vitro, DNA effects, Assay Code: UDH+, Evaluation Type: Evaluation A (Pre-1980)) “active; positive”; (Species/Cell Type: Human lymphocytes or leukocytes, Assay Type: Chromosome aberrations in vitro, Assay Code: CY7+D, Dose Response: With dose response, Evaluation Type: Evaluation A (Pre-1980)) “active; positive”. The mutagenic call is “active; positive” (Species/Cell Type: Human, Assay Type: Sister-chromatid exchange (SCE) in vitro, Assay Code: SC1+, Evaluation Type: Evaluation A (Pre-1980)); “active; positive” under setting [1]; “active; positive” (Species/Cell Type: Mouse germ cells, Sex: Male, Assay Type: Unscheduled DNA synthesis (UDS) in vivo, DNA effects, Assay Code: UDT+, Evaluation Type: Evaluation A (Pre-1980)); “active; positive” (Species/Cell Type: Mouse, Sex: Female, Assay Type: Spot test, gene mutation, Assay Code: MST+, Evaluation Type: Evaluation A (Pre-1980)); “active; positive” (Species/Cell Type: Mouse, Sex: Male, Assay Type: Specific locus test, gene mutation, Assay Code: SLT+, Evaluation Type: Evaluation A (Pre-1980)); “active; positive” (Species/Cell Type: Neurospora crassa, Assay Type: Forward gene mutation, Assay Code: NEF+, Evaluation Type: Evaluation A (Pre-1980)). For the same compound, the mutagenic call is “active; positive” (Species/Cell Type: Nonhuman bone marrow, Assay Type: Chromosome aberrations, in vivo, Assay Code: CY#+, Evaluation Type: Evaluation A (Pre-1980)); “active; positive” (Species/Cell Type: Nonhuman, Assay Type: Sister-chromatid exchange (SCE) in vitro, Assay Code: SC2+D, Dose Response: With dose response, Evaluation Type: Evaluation A (Pre-1980)); “active; positive” under setting [3]; “active; positive” (Species/Cell Type: Saccharomyces cerevisiae, Assay Type: Mitotic recombination or gene conversion, Assay Code: YEC+, Evaluation Type: Evaluation A (Pre-1980)); “active; positive” (Species/Cell Type: Saccharomyces cerevisiae, Assay Type: Mitotic recombination or gene conversion, Assay Code: YEH+, Evaluation Type: Evaluation A (Pre-1980)); “active; positive” under setting [4]. In addition, the mutagenic call reads like this: (Species/Cell Type: Salmonella typhimurium, Assay Type: Forward and reverse gene mutation, host-mediated assay, Assay Code: HMA+, Evaluation Type: Evaluation A (Pre-1980)) “active; positive”; (Species/Cell Type: Syrian hamster embryo (SHE) cells, Assay Type: Cell transformation, clonal assay, Assay Code: CTCT, Evaluation Type: Evaluation A (Pre-1980)) “no conclusion”; (Species/Cell Type: Vicia faba, Assay Type: Chromosome aberrations, Assay Code: VIC+, Evaluation Type: Evaluation A (Pre-1980)) “active; positive”; (Species/Cell Type: Zea mays (corn), Assay Type: Gene mutation, Assay Code: ZEM+D, Dose Response: With dose response, Evaluation Type: Evaluation A (Pre-1980)) “active; positive”. Further, the call under setting [2] was “active; positive”.

With `CC(=O)OC/C=C(C)/C=C/C=C(C)/C=C/C1=C(C)CCCC1(C)C`, the mutagenic call was “active; positive” under setting [5] and “no conclusion” (Species/Cell Type: Nonhuman, Assay Type: Sister-chromatid exchange (SCE) in vitro, Assay Code: SC2T, Evaluation Type: Evaluation B (Post-1980)).

As for `CC(=O)Nc1ccc2c(c1)Cc1cc(NC(C)=O)ccc1-2`, the mutagenic call under setting [4] is “active; positive”.

`COC(=O)NC(=S)Nc1ccccc1N`: the mutagenic call was “active; positive” (Species/Cell Type: Aspergillus nidulans, Assay Type: Aneuploidy, chromosome aberrations, Assay Code: ASN+, Evaluation Type: Evaluation A (Pre-1980)) and “inactive; negative” (Species/Cell Type: Aspergillus nidulans, Assay Type: Mitotic recombination, Assay Code: ASG-, Evaluation Type: Evaluation A (Pre-1980)).

As for `CC(C)NNC(=O)c1ccncc1`, the mutagenic call under setting [6] was “active; positive”.

On to `ONc1ccccc1`, for which the mutagenic call under setting [5] was “active; positive”.

As to `CCc1ccc(O)c(O)c1`, the mutagenic call (Species/Cell Type: Allium cepa, Assay Type: Chromosome aberrations, Assay Code: ALC-, Evaluation Type: Evaluation A (Pre-1980)) was “inactive; negative”.

In the case of `CCOc1ccc(NC(C)=O)cc1`, the mutagenic call is, setting by setting: under setting [1], “active; positive”; under setting [6], “active; positive”. For the same compound, the call under setting [2] was “active; positive”.

Regarding `C/C=C1/C[C@@H](C)[C@@](C)(O)C(=O)OC[C@H]2CCN3CC[C@@H](OC1=O)[C@@H]23`, under setting [7], the mutagenic call is given as “no conclusion”.

As for `O=S(=O)(O)c1ccc(O)c2ncccc12`, the mutagenic call (Species/Cell Type: Salmonella typhimurium (one or more of the five standard strains: TA98, TA100, TA1535, TA1537, and TA1538), Assay Type: Histidine reverse gene mutation, Ames assay, Assay Code: SAL+*, Activation: With metabolic activation, Evaluation Type: Evaluation A (Pre-1980)) is “active; positive”.

For the compound `Clc1ccc(C(c2ccc(Cl)cc2)C(Cl)Cl)cc1`, the mutagenic call is “no conclusion” under setting [7]; “no conclusion” (Species/Cell Type: Escherichia coli polA (W3119 vs P3478), Assay Type: Rec-assay, DNA effects (bacterial DNA repair), Assay Code: RE1T, Evaluation Type: Evaluation A (Pre-1980)); “active; positive” (Species/Cell Type: Nonhuman, Assay Type: Chromosome aberrations in vitro, Assay Code: CY&+, Evaluation Type: Evaluation A (Pre-1980)); “active; positive” (Species/Cell Type: Serratia marcesens, Assay Type: Reverse gene mutation, host-mediated assay, Assay Code: HMC+, Evaluation Type: Evaluation A (Pre-1980)).

On to `CC(C)C[C@H](NP(=O)(O)O[C@@H]1O[C@@H](C)[C@H](O)[C@@H](O)[C@H]1O)C(=O)N[C@@H](Cc1c[nH]c2ccccc12)C(=O)O`, for which, under setting [8], the mutagenic call is “no conclusion”.

Turning to `O=C(NO)c1ccc2ccccc2c1`, the mutagenic call reads like this: under setting [9], “active; positive”; under setting [4], “active; positive”.

Take `C=COC(N)=O`: the mutagenic call is, setting by setting: (Species/Cell Type: Human lymphocytes, Assay Type: Sister-chromatid exchange (SCE) in vitro, Assay Code: SCL+, Evaluation Type: Evaluation B (Post-1980)) “active; positive”; under setting [5], “active; positive”; under setting [9], “active; positive”; under setting [3], “active; positive”.

For the compound `c1ccc2c(c1)[nH]c1cnccc12`, the mutagenic call is “active; positive” (Species/Cell Type: Human lymphocytes, Assay Type: Sister-chromatid exchange (SCE) in vitro, Assay Code: SCL+D, Dose Response: With dose response, Evaluation Type: Evaluation B (Post-1980)); “no conclusion” (Species/Cell Type: Human lymphocytes, Assay Type: Sister-chromatid exchange (SCE) in vitro, Assay Code: SCLT, Evaluation Type: Evaluation B (Post-1980)); “active; positive” (Species/Cell Type: Human, Assay Type: Sister-chromatid exchange (SCE) in vitro, Assay Code: SC1+D, Dose Response: With dose response, Evaluation Type: Evaluation B (Post-1980)); “no conclusion” under setting [8].

These data come from PubChem BioAssay AID1259408 (Genetic Toxicology Data Bank (GENE-TOX), 2018).
